Measurements from patent publication US12473293B2, “Pharmacologically active heterocyclic-substituted pyrazolo[1,5-a]pyrimidine derivatives” (Richter Gedeon Nyrt., priority 2020, dated 2025).

How the values were obtained:
GABAB receptor = target: T1, GABAB receptor (Rattus norvegicus, UniProt O88871+Q9Z0U4); test: In vitro [35S]GTPγS binding assay in rat cortical membranes; format: biochemical; conditions: PAM EC50, [35S]GTPγS binding, read-out: In vitro PAM potency
T1 construct: from tissue; host or cells: rat brain cortex membranes
Procedure: In Vitro [^35S]GTPγS Binding Assay in Rat Cortical Membranes
Cortices of freshly harvested rat brains were dissected on an ice-cold surface and homogenized by a glass Dounce homogeniser immediately in ice-cold buffer containing 50 mM Tris, 5 mM MgCl2 and 1 mM EDTA (pH=7.6). Tissue homogenates were centrifuged at 40000 g for 15 min at 4° C. Membrane pellets were resuspended in the same buffer and membranes were incubated for 10 min at 30° C. in a shaking water bath to eliminate endogenous GABA. Homogenates were centrifuged again under the same conditions. The final pellets were resuspended in ice-cold buffer (pH=7.6) containing 50 mM Tris, 100 mM NaCl, 7 mM MgCl2, 1 mM EDTA and 1 mM dithiotreithol (DTT) to yield a concentration of 20 mg tissue weight/ml and frozen at −70° C. until use. The assay was done in a buffer containing 50 mM Tris (pH=7.4), 100 mM NaCl, 7 mM MgCl2, 1 mM EDTA and 1 mM DTT. Each assay tube contained 150 μL GDP (in a final concentration of 50 μM), 100 μL ligand and 125 μL of the membrane suspension ([…]). The assay tubes were preincubated for 10 min at 30° C. to assure equilibrium. Nonspecific binding was determined in the presence of 10 μM GTPγS; basal binding was determined in the presence of buffer only. After addition of […] [^35S]GTPγS in a volume of 25 μL to the tubes, membranes were incubated for an additional 60 min at 30° C. The assay was terminated by rapid filtration through Packard UniFilter GF/B using a Packard harvester and washed four times with 1 ml ice-cold buffer. After drying the filters at 40° C. for 1 h, 40 μL Microscint (Packard) was added to the filters and radioactivity of the filters was determined by a TopCount NXT (PerkinElmer, Waltham, MA; Alper and Nelson, Eur. J. Pharmacol. 1998, 343, 303-312; Rinken et al, Biochem. Pharmacol. 1999, 57, 155-162). Data thus gathered were used to determine PAM EC50 values for each compound as primary in vitro activity end point.
In Table 1 compounds of this invention measured in the [^35S]GTPγS binding assay are listed.

male Wistar rats = test: Foot shock-induced ultrasonic vocalization (USV) in adult rats; format: in vivo; conditions: Rattus norvegicus, po, p.o., 1 h before shocking
Procedure: Foot Shock-Induced Ultrasonic Vocalization (USV) in Adult Rats
Under stressful conditions, adult rats emit 22 kHz ultrasounds that can be reduced by various pharmacological treatments (De Vry et al, Eur. J. Pharmacol. 1993, 249, 331-339; Sanchez, Eur. J. Pharmacol. 2003, 463, 133-143). […] Therefore, a foot shock-induced vocalization paradigm in adult rats was used to assess in vivo efficacy of centrally acting GABAB receptor ligands. Behavioral measurements were carried out on male Wistar rats (200-250 g, Toxicoop, Hungary or Janvier, France). Rats were housed in groups of four in plastic cages with a wire grid top in a temperature and light-controlled laboratory animal care unit (22±2° C., 12-h light/dark cycle, lights on at 6:00 AM) with ad libitum access to commercial pellet rat food and tap water. Investigations were approved by the Local Ethical Committee of Gedeon Richter Plc. and were carried out in strict compliance with the European Directive 2010/63/EU regarding the care and use of laboratory animals for experimental procedures and all efforts were made to minimize the number of animals as well as their suffering. In order to evoke emission of ultrasounds, animals were footshocked after a habituation period of 30 s (6 shocks, 1 s, 0.8 mA each, inter-shock interval 10 s) in a sound attenuated shocking chamber (Experimetria, 40×40×80 cm). […] Vocalizations were measured right after the last footshock for 10 min with a Metris Sonotrack system and the total time of vocalizations was registered. Vocalization of parallel vehicle treated animals was considered as control value and inhibition percent was calculated for each compound.
In Table 2 compounds of this invention measured in the USV assay are listed.

T1 sequence (O88871 41-940): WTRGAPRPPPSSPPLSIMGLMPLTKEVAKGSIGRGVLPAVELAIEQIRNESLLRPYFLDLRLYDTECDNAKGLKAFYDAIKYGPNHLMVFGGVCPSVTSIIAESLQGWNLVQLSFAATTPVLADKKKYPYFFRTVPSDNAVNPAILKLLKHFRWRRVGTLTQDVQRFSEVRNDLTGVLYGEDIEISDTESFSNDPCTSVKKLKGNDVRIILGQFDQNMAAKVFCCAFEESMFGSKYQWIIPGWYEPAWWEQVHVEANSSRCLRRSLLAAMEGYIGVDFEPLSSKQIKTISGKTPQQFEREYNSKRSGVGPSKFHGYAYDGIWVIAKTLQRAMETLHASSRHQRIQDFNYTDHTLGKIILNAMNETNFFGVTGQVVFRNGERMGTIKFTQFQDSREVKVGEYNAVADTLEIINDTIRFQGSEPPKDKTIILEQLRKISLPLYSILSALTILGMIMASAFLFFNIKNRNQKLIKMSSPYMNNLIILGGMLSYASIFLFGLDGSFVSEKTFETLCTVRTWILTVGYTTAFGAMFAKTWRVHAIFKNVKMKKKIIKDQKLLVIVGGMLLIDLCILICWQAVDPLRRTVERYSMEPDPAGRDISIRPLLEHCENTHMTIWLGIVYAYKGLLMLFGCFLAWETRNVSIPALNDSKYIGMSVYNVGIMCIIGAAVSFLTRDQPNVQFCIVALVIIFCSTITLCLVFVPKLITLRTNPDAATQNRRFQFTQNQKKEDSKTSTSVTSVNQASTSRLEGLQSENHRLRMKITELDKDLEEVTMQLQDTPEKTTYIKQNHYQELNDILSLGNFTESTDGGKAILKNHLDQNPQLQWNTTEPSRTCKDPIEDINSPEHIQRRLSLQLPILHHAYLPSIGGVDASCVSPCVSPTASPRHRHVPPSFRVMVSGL
T1 sequence (Q9Z0U4 17-960 limits assumed): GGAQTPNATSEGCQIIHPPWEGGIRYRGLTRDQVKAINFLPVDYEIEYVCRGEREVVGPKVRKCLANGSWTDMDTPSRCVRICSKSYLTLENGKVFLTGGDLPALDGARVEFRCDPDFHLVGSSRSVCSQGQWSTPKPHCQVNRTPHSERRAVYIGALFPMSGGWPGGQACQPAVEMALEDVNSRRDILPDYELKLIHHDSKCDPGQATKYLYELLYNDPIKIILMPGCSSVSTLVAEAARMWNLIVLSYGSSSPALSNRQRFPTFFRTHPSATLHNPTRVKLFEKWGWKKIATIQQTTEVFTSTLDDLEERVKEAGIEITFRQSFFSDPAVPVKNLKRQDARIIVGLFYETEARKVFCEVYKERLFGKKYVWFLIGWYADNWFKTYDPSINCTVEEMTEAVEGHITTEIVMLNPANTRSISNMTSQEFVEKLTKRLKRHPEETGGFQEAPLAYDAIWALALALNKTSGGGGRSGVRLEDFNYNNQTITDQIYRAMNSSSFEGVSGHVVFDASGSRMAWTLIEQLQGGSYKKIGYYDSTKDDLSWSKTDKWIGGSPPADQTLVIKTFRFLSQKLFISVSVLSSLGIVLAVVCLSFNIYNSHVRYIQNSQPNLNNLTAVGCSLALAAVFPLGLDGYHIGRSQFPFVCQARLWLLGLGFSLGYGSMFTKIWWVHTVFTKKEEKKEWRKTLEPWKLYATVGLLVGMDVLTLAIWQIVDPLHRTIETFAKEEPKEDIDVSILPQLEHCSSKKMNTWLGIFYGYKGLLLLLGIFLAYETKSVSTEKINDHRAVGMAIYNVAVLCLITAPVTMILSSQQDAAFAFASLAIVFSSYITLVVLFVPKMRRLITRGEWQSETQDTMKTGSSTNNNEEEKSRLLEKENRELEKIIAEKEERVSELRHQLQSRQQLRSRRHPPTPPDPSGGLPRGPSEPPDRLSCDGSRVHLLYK

SMILES | EC50 (GABAB receptor) [nM] | inhibition in vivo at 1 mg/kg (male Wistar rats) [%] | inhibition in vivo at 3 mg/kg (male Wistar rats) [%] | inhibition in vivo at 10 mg/kg (male Wistar rats) [%]
COC(=O)N1CCO[C@@H](c2cc(C)nc3c(F)c([C@H]4CC[C@H](C(F)(F)F)CC4)nn23)C1 [Example 117] | < 100 | 73 |  | 
Cc1cc([C@H]2CN(C(=O)N(C)C)CCO2)n2nc([C@H]3CC[C@H](C(F)(F)F)CC3)cc2n1 [Example 112] | 100 to 1000 | 72 |  | 
Cc1nc2cc([C@H]3CC[C@H](C(F)(F)F)CC3)nn2c([C@@H]2CN(C=O)CC[C@@H]2C)c1C [Example 58] | < 100 | 44 |  | 
CCc1c(C)nc2cc([C@H]3CC[C@H](C(F)(F)F)CC3)nn2c1[C@@H]1CCCN(C(C)=O)C1 [Example 39] | 100 to 1000 |  | 33 | 
CNC(=O)N1CCO[C@@H](c2cc(C)nc3cc([C@H]4CC[C@H](C(F)(F)F)CC4)nn23)C1 [Example 111] | 100 to 1000 | 44 |  | 
Cc1cc([C@H]2CN(C(=O)c3cocn3)CCO2)n2nc([C@H]3CC[C@H](C(F)(F)F)CC3)cc2n1 [Example 113] | 100 to 1000 | 66 |  | 
CC(=O)N1CC[C@H](C)[C@H](c2cc(C)nc3c(F)c([C@H]4CC[C@H](C(F)(F)F)CC4)nn23)C1 (racemic) [Example 158] | 100 to 1000 |  | 35 | 
COC(=O)N1CCO[C@@H](c2cc(C)nc3cc([C@H]4CC[C@H](C(C)(C)C)CC4)nn23)C1 [Example 132] | < 100 | 65 |  | 
CCc1c(C)nc2cc([C@H]3CC[C@H](C(F)(F)F)CC3)nn2c1C1CN(C=O)CCO1 (stereo partly shown) [Example 82] | < 100 | 86 |  | 
COC(=O)N1CCC[C@@H](c2c(C)c(C)nc3cc([C@H]4CC[C@H](C(F)(F)F)CC4)nn23)C1 [Example 47] | 100 to 1000 |  |  | 63
Cc1nc2cc([C@H]3CC[C@H](C(F)(F)F)CC3)nn2c(C2CN(C=O)CC(F)(F)C2)c1C (stereo partly shown) [Example 75] | < 100 | 19 |  | 
Cc1cc([C@H]2CN(C=O)CC[C@@H]2C)n2nc([C@H]3CC[C@H](C(F)(F)F)CC3)cc2n1 [Example 68] | < 100 | 39 |  | 
COC(=O)N1CC[C@@H](C)[C@H](c2cc(C)nc3cc([C@H]4CC[C@H](C(F)(F)F)CC4)nn23)C1 (single isomer, unassigned) [Example 5] | < 100 | 88 |  | 
CC(=O)N1CCC[C@@H](c2cc(C)nc3cc([C@H]4CC[C@H](C(F)(F)F)CC4)nn23)C1 [Example 32] | 100 to 1000 |  | 68 | 
CCOC(=O)N1CCO[C@@H](c2cc(C)nc3cc([C@H]4CC[C@H](C(F)(F)F)CC4)nn23)C1 [Example 116] | 100 to 1000 | 0 |  | 
CCc1c(C)nc2cc([C@H]3CC[C@H](C(F)(F)F)CC3)nn2c1[C@H]1CCCN(C(C)=O)C1 [Example 42] | < 100 |  |  | 91
CCc1c(C)nc2cc([C@H]3CC[C@H](C(F)(F)F)CC3)nn2c1[C@@H]1CN(C(C)=O)CC[C@@H]1C [Example 66] | < 100 | 49 |  | 
Cc1cc([C@H]2CN(C=O)CC[C@H]2C)n2nc([C@H]3CC[C@H](C(F)(F)F)CC3)cc2n1 (single isomer, unassigned) [Example 9] | < 100 | 71 |  | 
CC(=O)N1CCC[C@H](c2c(C)c(C)nc3cc([C@H]4CC[C@H](C(F)(F)F)CC4)nn23)C1 [Example 43] | 100 to 1000 |  |  | 41
COC(=O)N1CCO[C@@H](c2cc(C)nc3cc([C@H]4CC[C@H](C(F)(F)F)CC4)nn23)C1 [Example 91] | < 100 | 89 |  | 
COC(=O)N1C[C@H](c2cc(C)nc3cc([C@H]4CC[C@H](C(F)(F)F)CC4)nn23)OC[C@@H]1C [Example 102] | < 100 |  |  | 
Cc1cc([C@@H]2CN(C=O)C(C)(C)CO2)n2nc([C@H]3CC[C@H](C(F)(F)F)CC3)cc2n1 (single isomer, unassigned) [Example 10] | 1000 to 10000 |  |  | 
COC(=O)N1CC[C@H](C)[C@@H](c2cc(C)nc3c(F)c([C@H]4CC[C@H](C(F)(F)F)CC4)nn23)C1 [Example 129] | 100 to 1000 |  |  | 
